Data reported in patent publication US20230085307A1, “PYRIDAZINONE COMPOUND AND HERBICIDE” (NISSAN CHEMICAL CORPORATION, priority 2019, published 2023).

Assays:
[1] = test system: green foxtail; test: Test Example 5: herbicidal effect by foliage application, plastic box (Table 20, symbol G); format: in vivo, green foxtail (Setaria viridis); details: foliage application; for herbicidal effect grade, G: green foxtail: 320 g/ha, three weeks after application
Summary of the method: (§1)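 Foliar spray test: emulsion formulation diluted in water to a set application rate, sprayed onto 14-day-old plants raised in diluvial soil at 25° C to 30° C under glass. Both herbicidal effect and crop effect rated visually three weeks later.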

[2] = test system: oval-leafed pondweed; test: Test Example 1: herbicidal activity, application before weed generation under submerged conditions (Table 16, symbol C); format: in vivo, oval-leafed pondweed (Monochoria vaginalis)
Summary of the method: (§2)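 Emulsion formulation, water-diluted to set dose, was put onto the flooded surface (4 cm depth, alluvial soil) the same day weeds were sown and 2.5-leaf rice transplanted. After 3 weeks at 25-30 °C under glass, each species was rated 0 (≤5% kill) to 5 (≥90% kill).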

[3] = test system: persian speedwell; test: Test Example 4: herbicidal effect by soil treatment (Table 19, symbol R); format: in vivo, Persian speedwell (Veronica persica)
Summary of the method: (§3)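 Step 1: sow seeds in sterilized diluvial soil, cover ~1.5 cm. Step 2: spray diluted emulsion onto soil surface at predetermined rate. Step 3: greenhouse, 25–30° C, three weeks. Step 4: grade effect on each plant by earlier criteria.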

[4] = test system: late watergrass; test: Test Example 1: herbicidal activity, application before weed generation under submerged conditions (Table 16, symbol A); format: in vivo, late watergrass (Echinochloa oryzicola)
Summary of the method: as §2

[5] = test system: false cleavers; test: Test Example 5: herbicidal effect by foliage application, plastic box (Table 20, symbol Q); format: in vivo, false cleavers (Galium spurium); details: foliage application; for herbicidal effect grade, Q: false cleavers: 320 g/ha, three weeks after application
Summary of the method: as §1

[6] = test system: false cleavers; test: Test Example 4: herbicidal effect by soil treatment (Table 19, symbol Q); format: in vivo, false cleavers (Galium spurium)
Summary of the method: as §3

[7] = test system: blackgrass; test: Test Example 4: herbicidal effect by soil treatment (Table 19, symbol J); format: in vivo, blackgrass (Alopecurus myosuroides)
Summary of the method: as §3

[8] = test system: windgrass; test: Test Example 4: herbicidal effect by soil treatment (Table 19, symbol L); format: in vivo, windgrass (Apera spica-venti)
Summary of the method: as §3

[9] = test system: Chinese sprangletop; test: Test Example 3: herbicidal effect by foliage application, Wagner pot (Table 18, symbol D); format: in vivo, chinese sprangletop (Leptochloa chinensis)
Summary of the method: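 Plants were sown in alluvial soil held under 0.1–0.5 cm standing water and grown 14 days in a greenhouse at 25–30 °C. An emulsifiable formulation, water-diluted to the set dose, was then sprayed onto the foliage, and effects were scored three weeks later using previously defined criteria.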

[10] = test system: chickweed; test: Test Example 5: herbicidal effect by foliage application, plastic box (Table 20, symbol P); format: in vivo, common chickweed (Stellaria media); details: foliage application; for herbicidal effect grade, P: chickweed: 320 g/ha, three weeks after application
Summary of the method: as §1

[11] = test system: velvetleaf; test: Test Example 5: herbicidal effect by foliage application, plastic box (Table 20, symbol M); format: in vivo, velvetleaf (Abutilon theophrasti); details: foliage application; for herbicidal effect grade, M: velvetleaf: 320 g/ha, three weeks after application
Summary of the method: as §1

[12] = test system: Japanese bulrush; test: Test Example 1: herbicidal activity, application before weed generation under submerged conditions (Table 16, symbol B); format: in vivo, Japanese bulrush (Schoenoplectus juncoides)
Summary of the method: as §2

[13] = test system: oval-leafed pondweed; test: Test Example 2: herbicidal activity, application during weed generation under submerged conditions (Table 17, symbol C); format: in vivo, oval-leafed pondweed (Monochoria vaginalis); details: application during weed generation, submerged conditions
Summary of the method: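 Effect on each weed is rated three weeks post-treatment, using the same scoring criteria as the preceding test. Plants grow from mixed-sown seed in flooded alluvial soil (4 cm water) at 25° C. to 30° C., and are treated at one to two leaves with diluted emulsion dropped onto the water.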

[14] = amount of applied herbicide 320 g/ha
[15] = 266 g/ha, 3 weeks after application
[16] = AAH 320 g/ha, evaluated three weeks after application

In the case of CCCCCOc1ccc(-c2sc3ccccc3c2-c2c(O)c(C)nn(C)c2=O)cc1 [1-026], the “herbicidal effect grade, G: green foxtail” value (shortened to “herbicidal effect grade, G”) [1] is reported as 5 (Herbicidal rate of 90% or more (almost completely withered)), the “Herbicidal effect on C: oval-leafed pondweed (grade 0-5)” value (from here on “Herbicidal effect on C”) ([2]; 320 g/ha applied herbicide) is reported as 1 (Herbicidal rate of 5% or more and less than 20%) and the “herbicidal effect rating, R: persian speedwell” value (“herbicidal effect rating, R” for short) [3, 14] is reported as 3 (Herbicidal rate of 40% or more and less than 70%). The “Herbicidal effect on A: late watergrass (grade 0-5)” value ([4]; 320 g/ha applied herbicide) was 1 (Herbicidal rate of 5% or more and less than 20%), the “herbicidal effect grade, Q: false cleavers” value (from here on “herbicidal effect grade, Q”) [5] was 4 (Herbicidal rate of 70% or more and less than 90%) and the “herbicidal effect rating, Q: false cleavers” value (shortened to “herbicidal effect rating, Q”) [6, 14] was 0 (Herbicidal rate of 5% or less (almost no effect)). For the same molecule, the “herbicidal effect rating, J: blackgrass” value [7, 14] was 0 (Herbicidal rate of 5% or less (almost no effect)), the “herbicidal effect rating, L: windgrass” value [8, 14] was 0 (Herbicidal rate of 5% or less (almost no effect)) and the “herbicidal effect on D (Chinese sprangletop), rating 0-5” value (“herbicidal effect on D … rating 0-5” below) ([9]; 320 g/ha) was 1 (Herbicidal rate of 5% or more and less than 20%). For the same molecule, the “herbicidal effect grade, P: chickweed” value [10] was 5 (Herbicidal rate of 90% or more (almost completely withered)), the “herbicidal effect grade, M: velvetleaf” value [11] was 5 (Herbicidal rate of 90% or more (almost completely withered)) and the “Herbicidal effect on B: Japanese bulrush (grade 0-5)” value (shortened to “Herbicidal effect on B”) ([12]; 320 g/ha applied herbicide) was 2 (Herbicidal rate of 20% or more and less than 40%).

In the case of CC(=O)c1ccc(-c2sc3ccccc3c2-c2c(O)c(C)nn(C)c2=O)cc1 [1-041], the “herbicidal effect grade, G” value [1] is reported as 1 (Herbicidal rate of 5% or more and less than 20%), the “herbicidal effect rating, C: oval-leafed pondweed” value (from here on “herbicidal effect rating, C”) ([13]; AAH 320 g/ha) is reported as 3 (Herbicidal rate of 40% or more and less than 70%) and the “Herbicidal effect on C” value ([2]; 320 g/ha applied herbicide) is reported as 4 (Herbicidal rate of 70% or more and less than 90%). For the same molecule, the “Herbicidal effect on A: late watergrass (grade 0-5)” value ([4]; 320 g/ha applied herbicide) was 3 (Herbicidal rate of 40% or more and less than 70%), the “herbicidal effect grade, Q” value [5] was 4 (Herbicidal rate of 70% or more and less than 90%) and the “herbicidal effect rating, Q” value [6, 14] was 5 (Herbicidal rate of 90% or more (almost completely withered)). The “herbicidal effect rating, J: blackgrass” value [7, 14] was 0 (Herbicidal rate of 5% or less (almost no effect)), the “herbicidal effect on D … rating 0-5” value ([9]; 320 g/ha) was 4 (Herbicidal rate of 70% or more and less than 90%) and the “herbicidal effect grade, P: chickweed” value [10] was 5 (Herbicidal rate of 90% or more (almost completely withered)). For the same molecule, the “herbicidal effect grade, M: velvetleaf” value [11] was 5 (Herbicidal rate of 90% or more (almost completely withered)) and the “Herbicidal effect on B” value ([12]; 320 g/ha applied herbicide) was 4 (Herbicidal rate of 70% or more and less than 90%).

With Cc1cc(-c2sc3ccccc3c2-c2c(O)c(C)nn(C)c2=O)ccc1F [1-051] the “herbicidal effect grade, G” value [1] was 5 (Herbicidal rate of 90% or more (almost completely withered)), the “herbicidal effect rating, C” value ([13]; AAH 320 g/ha) was 0 (Herbicidal rate of 5% or less (almost no effect)) and the “Herbicidal effect on C” value ([2]; 320 g/ha applied herbicide) was 0 (Herbicidal rate of 5% or less (almost no effect)). For the same molecule, the “herbicidal effect rating, R” value [3, 14] was 4 (Herbicidal rate of 70% or more and less than 90%), the “Herbicidal effect on A: late watergrass (grade 0-5)” value ([4]; 320 g/ha applied herbicide) was 4 (Herbicidal rate of 70% or more and less than 90%) and the “herbicidal effect grade, Q” value [5] was 0 (Herbicidal rate of 5% or less (almost no effect)). The “herbicidal effect rating, Q” value [6, 14] was 0 (Herbicidal rate of 5% or less (almost no effect)), the “herbicidal effect rating, J: blackgrass” value [7, 14] was 0 (Herbicidal rate of 5% or less (almost no effect)) and the “herbicidal effect on D … rating 0-5” value ([9]; 320 g/ha) was 0 (Herbicidal rate of 5% or less (almost no effect)). The “herbicidal effect grade, P: chickweed” value [10] was 5 (Herbicidal rate of 90% or more (almost completely withered)), the “herbicidal effect grade, M: velvetleaf” value [11] was 5 (Herbicidal rate of 90% or more (almost completely withered)) and the “Herbicidal effect on B” value ([12]; 320 g/ha applied herbicide) was 0 (Herbicidal rate of 5% or less (almost no effect)).

In the case of CCCC(=O)Oc1c(C)nn(C)c(=O)c1-c1c(-c2ccccc2OCC)sc2ccc(F)cc12 [2-029], the “effect on green foxtail (G)” value [1, 15] is reported as 4 (Herbicidal rate of 70% or more and less than 90%), the “herbicidal effect rating, C” value ([13]; AAH 266 g/ha) is reported as 3 (Herbicidal rate of 40% or more and less than 70%) and the “Herbicidal effect on C” value ([2]; 266 g/ha applied herbicide) is reported as 0 (Herbicidal rate of 5% or less (almost no effect)). The “herbicidal effect rating, R” value ([3]; 266 g/ha) was 3 (Herbicidal rate of 40% or more and less than 70%), the “Herbicidal effect on A: late watergrass (grade 0-5)” value ([4]; 266 g/ha applied herbicide) was 2 (Herbicidal rate of 20% or more and less than 40%) and the “effect on false cleavers (Q)” value [5, 15] was 4 (Herbicidal rate of 70% or more and less than 90%). The “herbicidal effect rating, Q” value ([6]; 266 g/ha) was 3 (Herbicidal rate of 40% or more and less than 70%), the “herbicidal effect rating, J: blackgrass” value ([7]; 266 g/ha) was 0 (Herbicidal rate of 5% or less (almost no effect)) and the “herbicidal effect rating, L: windgrass” value ([8]; 266 g/ha) was 0 (Herbicidal rate of 5% or less (almost no effect)). The “herbicidal effect on D … rating 0-5” value ([9]; 266 g/ha) was 3 (Herbicidal rate of 40% or more and less than 70%), the “effect on velvetleaf (M)” value [11, 15] was 5 (Herbicidal rate of 90% or more (almost completely withered)) and the “Herbicidal effect on B” value ([12]; 266 g/ha applied herbicide) was 0 (Herbicidal rate of 5% or less (almost no effect)).

In the case of Cc1nn(C)c(=O)c(-c2c(-c3ccc([N+](=O)[O-])cc3)sc3ccc(F)cc23)c1O [2-341], the “G: green foxtail, herbicidal effect (criteria 0-5)” value [1, 16] is reported as 5 (Herbicidal rate of 90% or more (almost completely withered)), the “herbicidal effect rating, C” value ([13]; AAH 320 g/ha) is reported as 3 (Herbicidal rate of 40% or more and less than 70%) and the “Herbicidal effect on C” value ([2]; 320 g/ha applied herbicide) is reported as 5 (Herbicidal rate of 90% or more (almost completely withered)). The “herbicidal effect on R: persian speedwell” value [3, 14] was 5 (Herbicidal rate of 90% or more (almost completely withered)), the “Herbicidal effect on A: late watergrass (grade 0-5)” value ([4]; 320 g/ha applied herbicide) was 3 (Herbicidal rate of 40% or more and less than 70%) and the “herbicidal effect on Q: false cleavers” value [6, 14] was 0 (Herbicidal rate of 5% or less (almost no effect)). For the same molecule, the “herbicidal effect on J: blackgrass” value [7, 14] was 0 (Herbicidal rate of 5% or less (almost no effect)), the “herbicidal effect on L: windgrass” value [8, 14] was 1 (Herbicidal rate of 5% or more and less than 20%) and the “herbicidal effect on D: Chinese sprangletop” value [9, 14] was 3 (Herbicidal rate of 40% or more and less than 70%). The “P: chickweed, herbicidal effect (criteria 0-5)” value [10, 16] was 5 (Herbicidal rate of 90% or more (almost completely withered)), the “M: velvetleaf, herbicidal effect (criteria 0-5)” value [11, 16] was 5 (Herbicidal rate of 90% or more (almost completely withered)) and the “Herbicidal effect on B” value ([12]; 320 g/ha applied herbicide) was 4 (Herbicidal rate of 70% or more and less than 90%).
